The text below walks through data of PMC11106742, “Computational Design of Cyclic Peptide Inhibitors of a Bacterial Membrane Lipoprotein Peptidase” (ACS Chemical Biology, 2024).

In one assay the test system is P. aeruginosa 950. In words: microbe, parasite or virus in culture. The format is cell-based, Pseudomonas aeruginosa. Here is the method:
(§1) MIC values were determined in cation-adjusted Mueller-Hinton broth using the broth microdilution method according to CLSI guidelines. Plates were incubated for 16 to 24 h at 37 °C.
(§2) Six biological replicates were performed across three different 2-fold dilution series, starting at concentration of 100 µg/ml, 80 µg/ml or 64 µg/ml. The lowest concentration of antimicrobial inhibiting growth was taken as the MIC. This was established by visual inspection of the medium after the incubation period with a lack of turbidity of the growth medium indicating no growth.[3] […]

For a further assay, the system named is E. coli ATCC25922. In words: microbe, parasite or virus in culture. The format is cell-based, Escherichia coli. Here is the method:
as §1, §2

In a further assay the test system is A. baumannii AB17978. In words: microbe, parasite or virus in culture. The format is cell-based, Acinetobacter baumannii. Here is the method:
as §1, §2

For a further assay, the system named is A. baumannii AB5075. In words: microbe, parasite or virus in culture. The format is cell-based, Acinetobacter baumannii. Here is the method:
as §1, §2

In a further assay the target is T1, PaLspA (Pseudomonas aeruginosa, UniProt Q9HVM5).
T1 construct: made in house
T1 sequence (Q9HVM5 1-169): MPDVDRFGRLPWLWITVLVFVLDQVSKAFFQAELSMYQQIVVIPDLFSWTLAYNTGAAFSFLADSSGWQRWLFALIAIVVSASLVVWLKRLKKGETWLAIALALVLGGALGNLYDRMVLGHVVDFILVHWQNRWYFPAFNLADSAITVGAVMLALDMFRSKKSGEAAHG
In words: biochemical. Here is the method: These analogues were tested for activity against PaLspA using an in vitro fluorescence resonance energy transfer (FRET) activity assay.[21] LspA inhibition was detected by a change in fluorescence upon cleavage of a FRET peptide substrate containing an N-terminal quencher moiety and a C-terminal fluorophore.
(A) Structures of G2a and G2d. (B) Results of the FRET dose–response assays. PaLspA concentration was 40 nM, FRET substrate concentration was 50 μM, and the concentration of inhibitors globomycin, G2a, and G2d ranged from 0–3,000 nM. (C) SDS-PAGE gels and quantitation of the PaLspA gel-shift dose–response assays. ppICP concentration was 12 μM, DOPG concentration was 600 μM, and Lgt concentration was 1.2 μM. The Lgt-catalyzed reaction was allowed to proceed for 60 min at 37 °C, after which inhibitors (0–1000 nM) were added. The PaLspA reaction was initiated by the addition of 100 nM enzyme. The LspA reaction was allowed to proceed for 30 min at 37 °C before being quenched with SDS-PAGE loading buffer (62.5 mM Tris/HCl pH 6.8, 2.5% (w/v) SDS, 0.002% (w/v) bromophenol blue, 0.5 M β-mercaptoethanol, 10% (v/v) glycerol). Quantitation of the gel-shift assays was performed using Image Lab, and data were plotted using GraphPad Prism.
Materials: All reagents were obtained from commercial sources and used without additional purification. All aqueous solutions were prepared using ultrapure laboratory grade water (deionized, filtered, and sterilized) obtained from an in-house ELGA water purification system. […]
Expression and purification of PaLspA, Lgt, EcLspA and ppICP: PaLspA, Lgt and pre-proICP (ppICP) were expressed and purified using previously published protocols (Vogely et al, 2016).[1] EcLspA was expressed and purified as described for PaLspA, with the following modification. The lysis buffer was 50 mM Hepes pH 7.5, 150 mM NaCl, 1 mM TCEP, 10 %(v/v) glycerol. Isolated membranes, containing EcLspA, were solubilized with 1 %(v/v) FC12 for 2 h at […]

Broadly, the IC50 is the concentration that gives 50% inhibition. A higher IC50 goes with a need for much substance.

≈ marks a conversion by molar mass, not a printed value. Like-named read-outs stand apart in the source and are kept apart here. Numbered stars: 1 amine (or outer) side, 2 acyl side, 3 side chain; on linkers, the order of the positions; unused ones are H or OH. Square brackets hold non-standard residues; d marks the D form. Peptide text beside a SMILES is read from it. X1 = CCCCCCCCN([C@@H](C)C(=O)[*:2])[*:1]; Gly(N-dodecyl) = CCCCCCCCCCCCNCC(=O)O; aIle = CC[C@@H](C)[C@H](N)C(=O)O; aThr = C[C@H](O)[C@H](N)C(=O)O; NMeL = CN[C@@H](CC(C)C)C(=O)O; βAla = NCCC(=O)O

As for `CCCCCCCCN1C(=O)CCNC(=O)[C@H]([C@H](C)O)NC(=O)[C@H](CO)NC(=O)[C@H]([C@H](C)CC)NC(=O)[C@H](CC(C)C)N(C)C(=O)[C@@H]1C` [G2a] (cyclo([NMeL][aIle]S[aThr][βAla][X1])), the MIC was 32 mg/L (≈ 46.9 µM) against P. aeruginosa 950 (950), 32 mg/L (≈ 46.9 µM) against E. coli ATCC25922 (ATCC25922), 12.5 mg/L (≈ 18.3 µM) in the assay with A. baumannii AB17978 (AB17978) and 16 mg/L (≈ 23.4 µM) in the assay on A. baumannii AB5075 (AB5075). Further, at PaLspA, it took 0.304 ± 0.062 µM to reach half-maximal inhibition (IC50).

In the case of `CCCCCCCCCCCCN1CC(=O)N(C)[C@@H](CC(C)C)C(=O)N[C@@H]([C@H](C)CC)C(=O)N[C@@H](CO)C(=O)N[C@@H]([C@H](C)O)C(=O)NCCC1=O` [G2d] (cyclo([NMeL][aIle]S[aThr][βAla][Gly(N-dodecyl)])), the MIC amounted to 32 mg/L (≈ 44.1 µM) in the assay with P. aeruginosa 950 (950), 32 mg/L (≈ 44.1 µM) in the assay on E. coli ATCC25922 (ATCC25922), 16 mg/L (≈ 22.1 µM) against A. baumannii AB17978 (AB17978) and 16 mg/L (≈ 22.1 µM) in the assay on A. baumannii AB5075 (AB5075). In addition, half-maximal inhibition on PaLspA (IC50) required 0.157 ± 0.025 µM.

For `CCCCCC[C@H]1OC(=O)CNC(=O)[C@H]([C@H](C)O)NC(=O)[C@H](CO)NC(=O)[C@H]([C@H](C)CC)NC(=O)[C@H](CC(C)C)N(C)C(=O)[C@@H]1C` [globomycin, reference compound], the MIC in the assay with P. aeruginosa 950 (Pseudomonas aeruginosa, P. aeruginosa 950, cation-adjusted Mueller-Hinton broth, 16 to 24 h, 37 °C, read-out: MIC) was 16 mg/L (≈ 24.4 µM); in the assay with E. coli ATCC25922 (Escherichia coli, E. coli ATCC25922, cation-adjusted Mueller-Hinton broth, 16 to 24 h, 37 °C, read-out: MIC), 10 mg/L (≈ 15.2 µM); in the assay with A. baumannii AB17978 (Acinetobacter baumannii, A. baumannii AB17978, cation-adjusted Mueller-Hinton broth, 16 to 24 h, 37 °C, read-out: MIC), 16 mg/L (≈ 24.4 µM); with A. baumannii AB5075 (Acinetobacter baumannii, A. baumannii AB5075, cation-adjusted Mueller-Hinton broth, 16 to 24 h, 37 °C, read-out: MIC) it was 32 mg/L (≈ 48.8 µM). In addition, at PaLspA, 0.04 µM corresponded to half-maximal inhibition (IC50).
